IC50 and EC50 data for 18 molecules are collected here from US20140155415A1, “BENZ[…] BENZODIOXINE COMPOUNDS THAT INTERACT WITH G[…] FOR THE TREATMENT OF DIABETES” (priority 2011, published 2014).

Assay [1] concerns the target T1, GK-GKRP (interaction between glucokinase and glucokinase regulatory protein) (Homo sapiens, UniProt Q14397).
T1 construct: made in house; host or cells: GKRP: baculovirus system
T1 sequence (Q14397 1-625): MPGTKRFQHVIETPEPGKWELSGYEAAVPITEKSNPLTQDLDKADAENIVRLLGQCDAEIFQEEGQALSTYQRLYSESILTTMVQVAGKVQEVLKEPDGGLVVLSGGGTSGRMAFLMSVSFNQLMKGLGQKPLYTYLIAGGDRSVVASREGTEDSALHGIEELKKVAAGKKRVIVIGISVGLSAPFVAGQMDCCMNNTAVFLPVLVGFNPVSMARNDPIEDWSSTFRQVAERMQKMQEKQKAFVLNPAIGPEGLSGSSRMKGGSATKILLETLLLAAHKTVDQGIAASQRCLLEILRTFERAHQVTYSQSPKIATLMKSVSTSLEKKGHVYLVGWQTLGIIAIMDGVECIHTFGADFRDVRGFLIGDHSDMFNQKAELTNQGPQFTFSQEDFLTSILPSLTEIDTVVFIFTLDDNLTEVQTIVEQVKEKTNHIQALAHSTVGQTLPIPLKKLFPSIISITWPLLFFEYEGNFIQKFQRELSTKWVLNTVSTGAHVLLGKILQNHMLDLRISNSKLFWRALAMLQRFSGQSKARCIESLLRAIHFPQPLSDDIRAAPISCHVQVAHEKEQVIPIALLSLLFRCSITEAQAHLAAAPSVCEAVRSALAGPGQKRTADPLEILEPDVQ
As to the kind of experiment: GK-GKRP Binding Assay (Binding), AlphaScreen. The following applies: avi-tagged GKRP, GK-fluorescein, AlphaScreen beads, 1 μM sorbitol-6-phosphate; read-out: GK-GKRP IC50 (Binding). The procedure, abridged:
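Biotinylated, C-terminally avi-tagged human GKRP was preincubated 20 min at room temperature with compound, then fluorescein-labelled human hepatic GK was added (6 nM in the added buffer). The mix was incubated 2 h at room temperature in the dark before AlphaScreen reading. Buffer was 20 mM Tris pH 7.5, 0.05% BSA, 1 mM DTT, 1 μM sorbitol-6-phosphate.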

Assay [2] addresses T2, GK-GKRP (glucokinase / glucokinase regulatory protein) (Homo sapiens, UniProt Q14397).
T2 sequence (Q14397 1-625): T1 sequence (Q14397 1-625)
As to the kind of experiment: GKRP LC MS/MS Biochemical Assay (LCMS/MS). The following applies: formation of 13C-glucose-6-phosphate from 13C-glucose by LC MS/MS, human His-hepatic GK, fructose-6-phosphate. Summed up: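 Human His-tagged hepatic GK (30 nM working stock, 5×) with GKRP in 50 mM Tris pH 7.5, 4 mM MgCl2, 6% DMSO; compound preincubated 30 min, then GK added for 30 min at room temperature. Acetonitrile-stopped; 13C-glucose-6-phosphate formed from 13C-glucose quantified by LC MS/MS.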

As to `O=S(=O)(NC(c1ccccc1)c1cc2ccncc2s1)c1ccc2c(c1)OCCCO2` (racemic) [Example 60, N-(phenyl(thieno[2,3-c]pyridin-2-yl)methyl)-3,4-dihydro-2H-1,5-benzodioxepine-7-sulfonamide], the IC50 in assay [1] came out at 360 nM. This molecule also returned an EC50 in assay [2] of 570 nM.
`O=S(=O)(NC(c1ccccc1)c1ccc2ccccc2c1)c1ccc2c(c1)OCCCO2` (racemic) [Example 55, N-(2-naphthalenyl(phenyl)methyl)-3,4-dihydro-2H-1,5-benzo dioxepine-7-sulfonamide]: the IC50 in assay [1] is 860 nM. Besides, in assay [2], the EC50 came out at 240 nM.
Taken in the same sequence, the figures for `C[C@@](O)(c1ccnc(-c2cccc3cc([C@H](NS(=O)(=O)c4ccc5c(c4)OCCCO5)c4ccccc4)sc23)c1)C(F)(F)F` (single isomer, unassigned) [Example 70 Peak #1] were 7 nM and 17 nM.
Regarding `O=S(=O)(NC(c1cc2ccccc2o1)c1ccccc1Br)c1ccc2c(c1)OCCCO2` (racemic) [Example 22, N-(1-benzofuran-2-yl(2-bromophenyl)methyl)-3,4-dihydro-2H-1,5-benzodioxepine-7-sulfonamide], the IC50 in assay [1] turned out to be 150 nM. The molecule further displayed an EC50 in assay [2] of 58 nM.
For `COc1cccnc1C(NS(=O)(=O)c1ccc2c(c1)OCCCO2)c1nc2ccccc2s1` (racemic) [Example 53, N-(1,3-benzothiazol-2-yl(3-methoxy-2-pyridinyl)methyl)-3,4-dihydro-2H-1,5-benzodioxepine-7-sulfonamide], in that order: 270 nM and 360 nM.
Take `CCCc1ccccc1C(NS(=O)(=O)c1ccc2c(c1)OCCCO2)c1cc2ccccc2o1` (racemic) [Example 11, N-(1-benzofuran-2-yl(2-propylphenyl)methyl)-3,4-dihydro-2H-1,5-benzodioxepine-7-sulfonamide]: in assay [1], the IC50 came to 1800 nM. In assay [2], this molecule yielded an EC50 of 1700 nM.
Turning to `CSc1ccccc1[C@H](NS(=O)(=O)c1ccc2c(c1)OCCCO2)c1cc2ccccc2s1` (single isomer, unassigned) [Example 41 Peak #1], the IC50 in assay [1] came to 140 nM. Besides, a half-maximal response in assay [2] (EC50) required 40 nM.
Taken in the same sequence, the figures for `O=S(=O)(N[C@@H](c1cc2ccccc2o1)c1ccccc1Br)c1ccc2c(c1)OCCCO2` (single isomer, unassigned) [Example 22 Peak #2] were 83 nM and 26 nM.
In the case of `CSc1ccccc1C(NS(=O)(=O)c1ccc2c(c1)OCCCO2)c1cc2cccnc2s1` (racemic) [Example 48, N-((2-(methylsulfanyl)phenyl)(thieno[2,3-b]pyridin-2-yl)methyl)-3,4-dihydro-2H-1,5-benzodioxepine-7-sulfonamide], the IC50 in assay [1] amounted to 10 nM. In assay [2], this molecule displayed an EC50 of 22 nM.
Turning to `COc1cccnc1C(NS(=O)(=O)c1ccc2c(c1)OCCCO2)c1cc2cccnc2s1` (racemic) [Example 49, N-((3-methoxy-2-pyridinyl)(thieno[2,3-b]pyridin-2-yl)methyl)-3,4-dihydro-2H-1,5-benzodioxepine-7-sulfonamide], the half-inhibitory concentration (IC50) in assay [1] is 93 nM. In addition, a half-maximal effect in assay [2] (EC50) was put at 150 nM.
Take `C[C@@](O)(c1ccnc(-c2cccc3cc([C@@H](NS(=O)(=O)c4ccc5c(c4)OCCCO5)c4ccccc4)sc23)c1)C(F)(F)F` (single isomer, unassigned) [Example 70 Peak #3]: the IC50 in assay [1] amounted to 330 nM. This molecule also returned an EC50 in assay [2] of 170 nM.
Taken in the same sequence, the figures for `COc1ccccc1[C@@H](NS(=O)(=O)c1ccc2c(c1)OCCCO2)c1cc2ccccc2o1` (single isomer, unassigned) [Example 17 Peak #2] were 52 nM and 52 nM.
For `CCc1ccccc1C(NS(=O)(=O)c1ccc2c(c1)OCCCO2)c1cc2ccccc2o1` (racemic) [Example 6, N-(1-benzofuran-2-yl(2-ethylphenyl)methyl)-3,4-dihydro-2H-1,5-benzodioxepine-7-sulfonamide], in that order: 220 nM and 67 nM.
For `COc1ccccc1C(NS(=O)(=O)c1ccc2c(c1)OCCCO2)c1cc2cccnc2s1` (racemic) [Example 47, N-((2-methoxyphenyl)(thieno[2,3-b]pyridin-2-yl)methyl)-3,4-dihydro-2H-1,5-benzodioxepine-7-sulfonamide], in that order: 27 nM and 59 nM.
On to `O=S(=O)(N[C@H](c1cc2ccccc2o1)c1ccccc1I)c1ccc2c(c1)OCCCO2` (single isomer, unassigned) [Example 21 Peak #1], for which the IC50 in assay [1] was more than 33000 nM. The same molecule returned an EC50 in assay [2] of more than 20000 nM.
For `O=S(=O)(NC(c1ccccc1)c1cc2cnccc2s1)c1ccc2c(c1)OCCCO2` (racemic) [Example 62, N-(phenyl(thieno[3,2-c]pyridin-2-yl)methyl)-3,4-dihydro-2H-1,5-benzodioxepine-7-sulfonamide], in that order: 11000 nM and 4600 nM.
Taken in the same sequence, the figures for `CSc1ccccc1C(NS(=O)(=O)c1ccc2c(c1)OCCCO2)c1cc2ccccc2o1` (racemic) [Example 19, N-(1-benzofuran-2-yl(2-(methylsulfanyl)phenyl)methyl)-3,4-dihydro-2H-1,5-benzodioxepine-7-sulfonamide] were 160 nM and 38 nM.
Taken in the same sequence, the figures for `O=S(=O)(NC(c1cc2ccccc2o1)c1nccs1)c1ccc2c(c1)OCCCO2` (racemic) [Example 34, N-(1-benzofuran-2-yl(1,3-thiazol-2-yl)methyl)-3,4-dihydro-2H-1,5-benzodioxepine-7-sulfonamide] were 6600 nM and 2800 nM.
